Calls of active or inactive are those of the source. The rule behind the calls is not given here.
Legend:
[1] = target: Cellular tumor antigen p53 (Homo sapiens) (UniProt P04637); assay: Transactivation of p53 in human HepG2 cells expressing MDM2 promoter by transient transfection reporter assay; format: cell-based
HepG2 = assay: Cytotoxicity against human HepG2 cells; format: cell-based
[2] = target: T1, Bile acid receptor (Homo sapiens) (UniProt Q96RI1); assay: Antagonist activity at human FXR expressed in human HepG2 cells assessed as upregulation of CYP7A1 gene transactivation at 100 uM by measuring relative luciferase activity by transient transfection reporter assay relative to control; format: functional, cell-based
T1 sequence (whole entry): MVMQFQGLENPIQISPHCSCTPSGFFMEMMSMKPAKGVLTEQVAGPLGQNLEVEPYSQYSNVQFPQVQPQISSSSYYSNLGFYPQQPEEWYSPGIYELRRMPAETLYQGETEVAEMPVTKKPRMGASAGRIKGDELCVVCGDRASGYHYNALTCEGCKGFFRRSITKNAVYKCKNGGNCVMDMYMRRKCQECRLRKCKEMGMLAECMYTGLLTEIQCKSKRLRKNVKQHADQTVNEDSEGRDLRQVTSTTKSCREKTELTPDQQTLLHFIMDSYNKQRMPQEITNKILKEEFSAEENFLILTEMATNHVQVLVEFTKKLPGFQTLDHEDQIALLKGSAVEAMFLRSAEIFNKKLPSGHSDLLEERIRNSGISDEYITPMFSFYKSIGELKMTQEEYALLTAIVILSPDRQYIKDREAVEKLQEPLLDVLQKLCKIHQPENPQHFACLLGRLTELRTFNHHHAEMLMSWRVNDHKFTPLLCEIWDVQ

[3] = target: T1, Bile acid receptor (Homo sapiens); assay: Antagonist activity at human FXR expressed in human HepG2 cells assessed as upregulation of CYP7A1 gene transactivation at 10 uM by measuring relative luciferase activity by transient transfection reporter assay relative to control; format: functional, cell-based
[4] = target: T1, Bile acid receptor (Homo sapiens); assay: Antagonist activity at human FXR expressed in human HepG2 cells assessed as inhibition of CDCA-induced transactivation of SHP gene by measuring relative luciferase activity by transient transfection reporter assay relative to control; format: functional, cell-based
[5] = target: T1, Bile acid receptor (Homo sapiens); assay: Antagonist activity at human FXR expressed in human HepG2 cells assessed as inhibition of CDCA-induced transactivation of SHP gene at 50 uM by measuring relative luciferase activity by transient transfection reporter assay relative to control; format: functional, cell-based
[6] = target: T1, Bile acid receptor (Homo sapiens); assay: Antagonist activity at human FXR expressed in human HepG2 cells assessed as inhibition of CDCA-induced transactivation of SHP gene at 100 uM by measuring relative luciferase activity by transient transfection reporter assay relative to control; format: functional, cell-based
[7] = target: T1, Bile acid receptor (Homo sapiens); assay: Agonist activity at human FXR expressed in human HepG2 cells assessed as transactivation of SHP gene at 400 uM by measuring relative luciferase activity by transient transfection reporter assay; format: functional, cell-based
[8] = target: T1, Bile acid receptor (Homo sapiens); assay: Antagonist activity at human FXR expressed in human HepG2 cells assessed as inhibition of CDCA-induced transactivation of SHP gene at 10 uM by measuring relative luciferase activity by transient transfection reporter assay relative to control; format: functional, cell-based
[9] = target: T2, Progesterone receptor (Homo sapiens) (UniProt P06401); assay: Agonist activity at human PR expressed in human HepG2 cells assessed as MMTV gene promoter transactivation at 100 uM by measuring relative luciferase activity by transient transfection reporter assay relative to control; format: functional, cell-based
T2 sequence (whole entry): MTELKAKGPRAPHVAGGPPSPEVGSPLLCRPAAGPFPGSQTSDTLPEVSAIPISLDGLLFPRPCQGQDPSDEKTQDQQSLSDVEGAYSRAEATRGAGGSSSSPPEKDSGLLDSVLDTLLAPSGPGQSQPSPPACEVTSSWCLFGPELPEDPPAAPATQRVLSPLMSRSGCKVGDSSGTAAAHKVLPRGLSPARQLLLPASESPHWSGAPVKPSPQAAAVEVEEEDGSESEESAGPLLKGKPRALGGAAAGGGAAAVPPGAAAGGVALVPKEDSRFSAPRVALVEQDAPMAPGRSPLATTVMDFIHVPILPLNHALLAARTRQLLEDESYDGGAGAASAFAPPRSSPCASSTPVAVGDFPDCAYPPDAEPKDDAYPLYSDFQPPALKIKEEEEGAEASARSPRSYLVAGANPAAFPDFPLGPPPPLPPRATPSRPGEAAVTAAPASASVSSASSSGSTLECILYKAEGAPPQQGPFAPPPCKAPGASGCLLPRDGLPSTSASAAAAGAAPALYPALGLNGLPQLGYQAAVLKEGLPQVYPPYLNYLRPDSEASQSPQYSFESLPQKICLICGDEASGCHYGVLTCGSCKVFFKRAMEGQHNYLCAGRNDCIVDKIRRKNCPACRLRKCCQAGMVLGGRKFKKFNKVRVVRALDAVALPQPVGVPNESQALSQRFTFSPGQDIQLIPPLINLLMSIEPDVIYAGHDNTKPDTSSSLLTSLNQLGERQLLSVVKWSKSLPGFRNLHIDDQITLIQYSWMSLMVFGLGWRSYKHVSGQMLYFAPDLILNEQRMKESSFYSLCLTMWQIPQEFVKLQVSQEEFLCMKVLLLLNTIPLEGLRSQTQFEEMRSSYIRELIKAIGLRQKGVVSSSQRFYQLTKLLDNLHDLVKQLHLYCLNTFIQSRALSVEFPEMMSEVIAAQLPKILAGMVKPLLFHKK

[10] = target: T2, Progesterone receptor (Homo sapiens); assay: Agonist activity at human PR expressed in human HepG2 cells assessed as MMTV gene promoter transactivation at 10 uM by measuring relative luciferase activity by transient transfection reporter assay relative to control; format: functional, cell-based

Sequence of Cellular tumor antigen p53 (Homo sapiens) (P04637 whole entry, looked up): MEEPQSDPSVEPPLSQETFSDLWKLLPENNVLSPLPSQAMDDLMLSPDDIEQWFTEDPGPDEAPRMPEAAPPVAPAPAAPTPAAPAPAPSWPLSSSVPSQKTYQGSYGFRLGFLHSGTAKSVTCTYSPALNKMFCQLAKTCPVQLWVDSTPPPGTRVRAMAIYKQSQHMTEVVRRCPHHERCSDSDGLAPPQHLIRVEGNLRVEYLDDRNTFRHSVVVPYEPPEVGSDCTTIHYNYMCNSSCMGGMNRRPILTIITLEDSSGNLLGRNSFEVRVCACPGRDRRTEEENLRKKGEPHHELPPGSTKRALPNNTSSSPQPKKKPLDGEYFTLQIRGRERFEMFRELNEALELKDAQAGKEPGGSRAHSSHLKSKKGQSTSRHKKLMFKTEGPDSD

| Structure (SMILES) | Activity [1] | Activity (HepG2) | fold change (FC) [2] | fold change (FC) [3] | inhibition [4] | inhibition [5] | RLU [6] | Activity [7] | RLU [8] | Activity [9] | RLU [10] | RLU [9] |
| --- | --- | --- | --- | --- | --- | --- | --- | --- | --- | --- | --- | --- |
| C=C1CCC[C@]2(C)C=C3OC(=O)C(C)=C3C[C@@H]12 [ATRACTYLENOLIDE I] | Active | Toxic |  |  |  |  |  |  |  |  |  |  |
| C=C1CCC[C@]2(C)C[C@@H]3OC(=O)C(C)=C3C[C@@H]12 |  |  | 2 | 1.5 | Dose-dependent effect | 50% | 0.9 | inactive | 1.5 | inactive |  |  |
| C=C1CCC[C@]2(C)C[C@]3(O)OC(=O)C(C)=C3C[C@@H]12 |  |  |  | 1.5 | Dose-dependent effect | 50% | 0.85 | inactive | 1.7 |  | 1.57 | 3.39 |
| CC(=O)[C@H]1CC[C@H]2[C@@H]3CCC4=CC(=O)CC[C@]4(C)[C@H]3CC[C@]12C |  |  |  |  |  |  |  |  |  |  | 2.38 |  |
